# Paper PMC5048659 (Arthritis Research & Therapy, 2016)
# “Also recorded” adds a separate entry of the source.
# How the values were obtained:
# PPARγ = biological target: T1, PPARγ (Homo sapiens, UniProt P37231); assay: Human PPARγ luciferase reporter assay; type: cell-based; settings: reporter cells, 24 hours, up to 100 μM
# T1 sequence (P37231 238-505 limits assumed): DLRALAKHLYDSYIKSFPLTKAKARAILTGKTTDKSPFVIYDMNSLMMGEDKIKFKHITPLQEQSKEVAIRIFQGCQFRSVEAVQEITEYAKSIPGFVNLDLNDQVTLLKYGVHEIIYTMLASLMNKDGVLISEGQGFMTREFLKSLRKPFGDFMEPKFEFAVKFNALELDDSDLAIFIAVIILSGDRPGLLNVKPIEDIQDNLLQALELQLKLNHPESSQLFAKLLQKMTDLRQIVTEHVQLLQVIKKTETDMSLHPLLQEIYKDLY
# Method: This assay was performed using nonhuman mammalian cells engineered to provide a PPARγ-responsive luciferase reporter gene and constitutive, high levels of PPARγ (Indigo Biosciences catalog number IB00101). Cells were incubated with compounds for 24 hours, and then luciferase activity was measured using a luminometer. Agonist activity was reported as fold activation over a vehicle control. A positive control agonist, rosiglitazone, was included in each batch run to verify cell integrity.
# OAT3 = tested on: OAT3; design: method as in earlier work; settings: oocytes, 2 µM 3H-estrone sulfate, 60 min; shown in Figure S1; ref 41 (Shen et al.); read-out: IC50 against OAT3; cited from earlier work
# GLUT9 (SLC2A9v2/GLUT9ΔN) = biological target: T2, GLUT9 (SLC2A9v2/GLUT9ΔN) (Homo sapiens, UniProt Q9NRM0); assay: GLUT9 urate transport in cRNA-injected oocytes; type: cell-based
# T2 construct: expressed in transfected cells
# T2 sequence (Q9NRM0 1-511 isoform Q9NRM0-2): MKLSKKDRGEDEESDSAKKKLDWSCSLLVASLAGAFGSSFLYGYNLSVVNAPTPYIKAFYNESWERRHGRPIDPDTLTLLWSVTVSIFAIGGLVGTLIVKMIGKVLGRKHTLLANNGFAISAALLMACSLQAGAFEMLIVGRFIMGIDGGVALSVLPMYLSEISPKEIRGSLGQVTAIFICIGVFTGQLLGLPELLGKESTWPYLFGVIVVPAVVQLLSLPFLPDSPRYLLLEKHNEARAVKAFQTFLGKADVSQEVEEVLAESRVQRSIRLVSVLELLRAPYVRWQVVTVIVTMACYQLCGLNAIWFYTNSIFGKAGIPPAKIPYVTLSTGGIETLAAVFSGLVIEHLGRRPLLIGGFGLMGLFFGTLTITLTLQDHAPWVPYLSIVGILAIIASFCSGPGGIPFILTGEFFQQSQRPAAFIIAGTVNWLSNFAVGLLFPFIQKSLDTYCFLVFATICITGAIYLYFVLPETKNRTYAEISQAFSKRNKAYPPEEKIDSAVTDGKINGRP
# Method: For GLUT9, SLC2A9v2/GLUT9ΔN in pCMV6/neo was linearized with XmaI and NotI and cRNA transcribed using the mMessage mMachine T7 kit (Ambion). Oocytes were injected with either water or 25 ng cRNA and incubated for 3 to 5 days in ND96 buffer. For each point, 10 oocytes were incubated with 100 μM ^14C-uric acid in ND96 buffer with and without test compounds at room temperature for 60 minutes. The oocytes were then washed three to four times in ice-cold ND96 buffer and lysed prior to scintillation counting.
# HepG2 cells = assay: Mitochondrial toxicity assay (JC-1 mitochondrial membrane potential); type: cell-based, human; settings: HepG2, highest concentration tested 33 μM
# Method: HepG2 cells were counted via hemocytometer and diluted into equal volumes of serum-free Opti-MEM (Life Technologies) and JC-1 Staining Solution (Sigma catalog number CS0390) at 300,000 cells/mL in the presence of 2.5 μg/mL JC-1. Cells were incubated at 37 °C and 5 % CO2 for 20 minutes, rinsed once with Hank's Balanced Salt Solution, and resuspended to the same concentration in serum-free Opti-MEM. Cells were then seeded into 96-well black-sided clear-bottom tissue culture plates at 30,000 cells/100 μL/well. Three replicates per experimental condition group were used. Compound was added with the final dimethyl sulfoxide (DMSO) concentration at 0.5 %. After 2 hours at 37 °C and 5 % CO2, medium was aspirated and plates were read on a Gemini EM spectrofluorometer (Molecular Devices). Fluorescence of JC-1 monomers was monitored by excitation at 490 nm and emission at 530 nm (green) and of aggregates by excitation at 525 nm and emission at 590 nm (red). The ratio of J-aggregates to monomers was calculated, with a lower ratio indicating increased cell toxicity. The percent change in mitochondrial membrane potential (Ψm) was calculated as follows: […]
# OAT1 = biological target: T3, OAT1 (Homo sapiens, UniProt Q4U2R8); assay: OAT1 6-carboxyfluorescein transport in transfected HEK-293T cells; type: cell-based; settings: 5 μM 6-carboxyfluorescein, 2 min; mean ± SEM; read-out: Potency (IC50) against OAT1
# T3 construct: host or cells: HEK-293T, transient transfection
# T3 sequence (Q4U2R8 1-563): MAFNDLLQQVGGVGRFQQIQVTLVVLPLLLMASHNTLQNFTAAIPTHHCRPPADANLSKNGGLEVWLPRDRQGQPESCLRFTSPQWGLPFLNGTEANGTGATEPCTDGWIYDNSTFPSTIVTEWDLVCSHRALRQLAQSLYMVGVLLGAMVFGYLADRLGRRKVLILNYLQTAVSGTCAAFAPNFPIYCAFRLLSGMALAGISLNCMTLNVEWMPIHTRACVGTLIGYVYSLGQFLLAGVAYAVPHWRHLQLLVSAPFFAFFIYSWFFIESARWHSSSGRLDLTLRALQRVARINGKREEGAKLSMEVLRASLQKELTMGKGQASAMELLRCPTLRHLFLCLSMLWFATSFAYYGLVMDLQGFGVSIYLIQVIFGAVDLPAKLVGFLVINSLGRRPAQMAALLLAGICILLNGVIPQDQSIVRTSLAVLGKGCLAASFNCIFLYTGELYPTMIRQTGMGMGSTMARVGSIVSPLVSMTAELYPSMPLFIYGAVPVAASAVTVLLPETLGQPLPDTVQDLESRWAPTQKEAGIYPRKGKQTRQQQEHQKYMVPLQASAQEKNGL
# Method: The cells were washed three times in a buffer containing 125 mM NaCl and 25 mM HEPES, pH 7.3, and then lysed in 1 M sodium hydroxide prior to fluorescence measurement.
# [1] = cited from earlier work
smiles,measurement,setting,value
"O=C(O)CSc1nnc(Br)n1-c1ccc(C2CC2)c2ccccc12 [Lesinurad, 2-((5-bromo-4-(4-cyclopropylnaphthalen-1-yl)-4H-1,2,4-triazol-3-yl)thio) acetic acid]",PPARγ activation,PPARγ,no PPARγ agonism
same,IC50,OAT3,3.54 µM
same,IC50,"GLUT9 (SLC2A9v2/GLUT9ΔN); 100 μM 14C-uric acid, 60 min, read-out: Potency against GLUT9",> 100 µM
same,Effect on GLUT9 urate transport,GLUT9 (SLC2A9v2/GLUT9ΔN); compound at up to 100 μM,no effect; also recorded: does not inhibit
same,Mitochondrial toxicity,HepG2 cells,no mitochondrial toxicity
same,IC50,OAT1,3.9 ± 0.94 µM
same,Fraction of compound excreted via urine,[1],approximately one third
